pIC50, pKi: −log10 of the molar value.
Assays:
mICE [1] = biological target: T1, mICE (Mus musculus, UniProt P29452); experiment: Fluorescence enzyme assay, IC50 determination, ICE; assay type: biochemical; details: recombinant enzyme, substrate Acetyl-Tyr-Val-Ala-Asp-AMC, 30 min preincubation, room temperature
T1 sequence (P29452 123-296 limits assumed): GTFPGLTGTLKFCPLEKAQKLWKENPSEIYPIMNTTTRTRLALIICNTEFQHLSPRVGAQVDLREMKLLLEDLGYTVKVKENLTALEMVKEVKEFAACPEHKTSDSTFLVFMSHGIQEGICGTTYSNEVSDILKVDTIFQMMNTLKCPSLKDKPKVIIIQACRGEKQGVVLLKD
T1 sequence (P29452 315-402 limits assumed): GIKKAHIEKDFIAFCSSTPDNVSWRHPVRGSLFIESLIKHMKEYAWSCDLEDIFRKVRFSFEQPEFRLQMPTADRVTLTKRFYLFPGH
Protocol: (§1) Fluorescence enzyme assays detecting the activity of the compounds of Formula 1 utilizing the recombinant ICE and CPP32 enzymes were performed essentially according to Thornberry et al. (Nature, 356:768:774 (1992)) and Nicholson et al. (Nature, 376:37-43 (1995)) respectively, (herein incorporated by reference) in 96 well microtiter plates. The substrate is Acetyl-Tyr-Val-Ala-Asp-amino-4-methylcoumarin (AMC) for the ICE assay and Acetyl-Asp-Glu-Val-Asp-amino-4-methylcoumarin for the CPP32, Mch2, Mch3 and Mch5 assays. Enzyme reactions were run in ICE buffer (25 mM HEPES, 1 mM EDTA, 0.1% CHAPS, 10% sucrose, pH 7.5) containing 2 mM DTT at room temperature in duplicate. The assays were performed by mixing the following components:
(§2) 50 μL ICE, Mch2, Mch5, CPP32 (18.8, 38, 8.1 and 0.153 nM concentrations, respectively) or Mch3 (1 unit) enzyme in ICE buffer containing either 8.0 (ICE, Mch2, Mch3, CPP32) or 20 (Mch5) mM DTT;
(§3) 50 μL compound of Formula 1 or ICE buffer (control); and
(§4) 100 μL of 20 μM substrate.
(§5) The enzyme and the compound of Formula 1 to be assayed were allowed to preincubate in the microtitre plate wells for 30 minutes at room temperature prior to the addition of substrate to initiate the reaction. Fluorescent AMC product formation was monitored for one hour at room temperature by measuring the fluorescence emission at 460 nm using an excitation wavelength of 360 nm. The fluorescence change in duplicate (control) wells were averaged and the mean values were plotted as a function of inhibitor concentration to determine the inhibitor concentration producing 50% inhibition (IC50).
(§6) The reference compound for this assay was Cbz-ValAlaAsp-H and the values are denoted in Table 1 as “Reference”.

CPP32 [2] = biological target: T2, CPP32 (Homo sapiens, UniProt P42574); experiment: Fluorescence enzyme assay, IC50 determination, CPP32; assay type: biochemical; details: recombinant enzyme, substrate Acetyl-Asp-Glu-Val-Asp-AMC, 30 min preincubation, room temperature
T2 sequence (P42574 29-175 limits assumed): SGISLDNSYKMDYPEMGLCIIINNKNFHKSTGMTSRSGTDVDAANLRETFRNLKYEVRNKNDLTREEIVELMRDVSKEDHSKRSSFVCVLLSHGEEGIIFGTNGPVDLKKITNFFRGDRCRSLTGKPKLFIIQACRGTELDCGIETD
T2 sequence (P42574 176-277 limits assumed): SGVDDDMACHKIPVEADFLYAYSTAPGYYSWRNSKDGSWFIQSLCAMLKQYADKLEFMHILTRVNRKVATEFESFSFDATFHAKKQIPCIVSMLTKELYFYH
Protocol: as §1, §2, §3, §4, §5, §6

MCH-2 [3] = biological target: T3, MCH-2 (Homo sapiens, UniProt P55212); experiment: Fluorescence enzyme assay, IC50 determination, Mch2; assay type: biochemical; details: substrate Acetyl-Asp-Glu-Val-Asp-AMC, 30 min preincubation, room temperature
T3 sequence (P55212 24-179 limits assumed): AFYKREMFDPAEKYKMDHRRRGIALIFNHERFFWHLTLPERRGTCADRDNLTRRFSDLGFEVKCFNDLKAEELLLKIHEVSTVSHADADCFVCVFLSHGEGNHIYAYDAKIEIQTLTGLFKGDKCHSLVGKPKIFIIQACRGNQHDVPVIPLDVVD
T3 sequence (P55212 194-293 limits assumed): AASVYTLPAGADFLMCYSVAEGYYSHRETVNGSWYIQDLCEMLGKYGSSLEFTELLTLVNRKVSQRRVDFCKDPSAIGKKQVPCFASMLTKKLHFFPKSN
Protocol: as §1, §2, §3, §4, §5, §6

MCH-3 = biological target: T4, MCH-3 (Homo sapiens, UniProt P55210); experiment: Fluorescence enzyme assay, IC50 determination, Mch3; assay type: biochemical; details: substrate Acetyl-Asp-Glu-Val-Asp-AMC, 30 min preincubation, room temperature
T4 sequence (P55210 24-198 limits assumed): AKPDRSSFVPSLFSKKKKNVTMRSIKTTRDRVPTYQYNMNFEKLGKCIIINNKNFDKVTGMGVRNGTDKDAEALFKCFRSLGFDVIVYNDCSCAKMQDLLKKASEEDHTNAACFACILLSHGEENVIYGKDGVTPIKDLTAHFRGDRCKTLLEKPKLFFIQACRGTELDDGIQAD
T4 sequence (P55210 207-303 limits assumed): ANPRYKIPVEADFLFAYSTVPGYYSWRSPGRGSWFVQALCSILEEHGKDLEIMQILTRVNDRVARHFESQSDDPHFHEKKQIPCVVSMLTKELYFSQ
Protocol: as §1, §2, §3, §4, §5, §6

MCH-5 [4] = biological target: T5, MCH-5 (Homo sapiens, UniProt Q14790); experiment: Fluorescence enzyme assay, IC50 determination, Mch5; assay type: biochemical; details: substrate Acetyl-Asp-Glu-Val-Asp-AMC, 30 min preincubation, room temperature
Protocol: as §1, §2, §3, §4, §5, §6

mICE [5] = biological target: T1, mICE; experiment: Continuous assay for Ki and k3 of irreversible inhibitors, ICE; assay type: biochemical
Excerpt: (§7) B. Determination of the dissociation constant Ki and irreversible rate constant k3 for irreversible inhibitors
(§8) For the irreversible inhibition of a ICE/ced-3 Family Protease enzyme with a competitive irreversible inhibitor; using the model represented by the following formulas: [drawing 14]
(§9) The product formation at time t may be expressed as: [formula]
(§10) where E, I, EI and E-I denote the active enzyme, inhibitor, non-covalent enzyme-inhibitor complex and covalent enzyme-inhibitor adduct, respectively. The Ki value is the overall dissociation constant of the reversible binding steps, and k3 is the irreversible rate constant. The [S] and Ks values are the substate concentration and dissociation constant of the substrate bound to the enzyme, respectively. [E]^T is the total enzyme concentration.
(§11) The above equations were used to determine the Ki and k3 values of a given inhibitor bound to a ICE/ced-3 family protease. Thus, a continuous assay was run for sixty minutes at various concentrations of the inhibitor and the substrate. The assay was formulated essentially the same as described above for generating the data in Table 1, except that the reaction was initiated by adding the enzyme to the substrate-inhibitor mixture. […]

CPP32 [6] = biological target: T2, CPP32; experiment: Continuous assay for Ki and k3 of irreversible inhibitors, CPP32; assay type: biochemical
Excerpt: as §7, §8, §9, §10, §11

MCH-2 [7] = biological target: T3, MCH-2; experiment: Continuous assay for Ki and k3 of irreversible inhibitors, Mch2; assay type: biochemical
Excerpt: as §7, §8, §9, §10, §11

MCH-5 [8] = biological target: T5, MCH-5; experiment: Continuous assay for Ki and k3 of irreversible inhibitors, Mch5; assay type: biochemical
Excerpt: as §7, §8, §9, §10, §11

[9] = continuous assay 60 min, reaction initiated by adding enzyme

T5 sequence (Q14790 217-374 limits assumed, species assumed): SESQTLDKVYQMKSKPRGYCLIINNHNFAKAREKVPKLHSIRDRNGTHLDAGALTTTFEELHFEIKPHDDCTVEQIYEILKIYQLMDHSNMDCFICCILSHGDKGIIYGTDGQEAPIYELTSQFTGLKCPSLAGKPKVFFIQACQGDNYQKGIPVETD
T5 sequence (Q14790 385-479 limits assumed, species assumed): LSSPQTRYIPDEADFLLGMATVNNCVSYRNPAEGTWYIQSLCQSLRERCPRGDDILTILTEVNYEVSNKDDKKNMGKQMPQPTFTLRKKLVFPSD

pIC50 (mICE [1])	pIC50 (CPP32 [2])	pIC50 (MCH-2 [3])	pIC50 (MCH-3)	pIC50 (MCH-5 [4])	melting point	k3/Ki (mICE [5]; Example 31) [M⁻¹ s⁻¹]	pKi (mICE [5]; [9])	k3/Ki (CPP32 [6]; Example 31) [M⁻¹ s⁻¹]	pKi (CPP32 [6]; [9])	k3/Ki (MCH-2 [7]; Example 31) [M⁻¹ s⁻¹]	pKi (MCH-2 [7]; [9])	k3/Ki (MCH-5 [8]; Example 31) [M⁻¹ s⁻¹]	pKi (MCH-5 [8]; [9])	SMILES
6.16	8.85	5.19	6.84	5.68	160 to 175 °C (dec.)									CC(=O)N[C@@H](CC(=O)O)C(=O)N[C@H]1CCc2cccc3c2N(C1=O)[C@H](C(=O)N[C@H]1CC(=O)OC1O)C3 (stereo partly drawn) [Example 7]
7.35	6.11	< 5.00	4.49	4.73	78 to 81 °C									O=C(CCc1ccccc1)N[C@H]1CCc2cccc3c2N(C1=O)[C@H](C(=O)N[C@H]1CC(=O)OC1O)C3 (stereo partly drawn) [Example 16]
8.00	5.54	< 4.30	4.91	5.96	202 to 203 °C (dec.)									O=C1C[C@H](NC(=O)[C@@H]2Cc3cccc4c3N2C(=O)[C@@H](NC(=O)c2cccc3ccccc23)CC4)C(O)O1 (stereo partly drawn) [Example 22]
5.51	5.41	< 5.00	< 4.30	< 4.30	210 to 215 °C (dec.)									CC(=O)N[C@H]1CCc2cccc3c2N(C1=O)[C@H](C(=O)N[C@H]1CC(=O)OC1O)C3 (stereo partly drawn) [Example 19]
6.80	5.06	< 4.30	< 4.30	5.33	204 to 205 °C (dec.)									O=C1C[C@H](NC(=O)[C@@H]2Cc3cccc4c3N2C(=O)[C@@H](NC(=O)c2ccccc2)CC4)C(O)O1 (stereo partly drawn) [Example 25]
						1.2e+07	9.30	960000	7.92	25000	7.48	98000	7.66	O=C(O)CC(NC(=O)[C@@H]1Cc2cccc3c2N1C(=O)[C@@H](NC(=O)OCc1ccccc1)CC3)C(=O)CF (stereo partly drawn) [Example 31]
7.02	9.28		7.08	5.92	140 to 144 °C (dec.)									O=C(O)C[C@H](NC(=O)OCc1ccccc1)C(=O)N[C@H]1CCc2cccc3c2N(C1=O)[C@H](C(=O)N[C@H]1CC(=O)OC1O)C3 (stereo partly drawn) [Example 13]
6.24	6.61	5.74	5.55	5.10	145 to 160 °C (dec.)									O=C(O)CCC(=O)N[C@H]1CCc2cccc3c2N(C1=O)[C@H](C(=O)N[C@H]1CC(=O)OC1O)C3 (stereo partly drawn) [Example 10]
					109 to 111 °C (dec.)									O=C(O)C[C@H](NC(=O)[C@@H]1Cc2cccc3c2N1C(=O)[C@@H](NC(=O)OCc1ccccc1)CC3)C(=O)COP(=O)(c1ccccc1)c1ccccc1 [Example 34, 3-[(2S-cis)-[5-Benzyloxycarbonylamino-1,2,3,4,5,6,7-hexahydro-4-oxoazapino[3,2,1-hi]indole-2-carbonyl]amino]5-(diphenylphosphinyl) oxy-4-oxo-pentanoic acid]
7.72	5.99	4.40	5.16	< 5.00	101 to 104 °C									O=C1C[C@H](NC(=O)[C@@H]2Cc3cccc4c3N2C(=O)[C@@H](NC(=O)OCc2ccccc2)CC4)C(O)O1 (stereo partly drawn) [Example 3]
					103 to 105 °C (dec.)									CC(C)(C)OC(=O)C[C@@H](/C=N/NC(N)=O)NC(=O)[C@@H]1Cc2cccc3c2N1C(=O)[C@@H](NC(=O)c1cccc2ccccc12)CC3 [Example 20]

SMILES	pIC50 (mICE [1])	pIC50 (CPP32 [2])	pIC50 (MCH-2 [3])	pIC50 (MCH-3)	pIC50 (MCH-5 [4])	melting point	k3/Ki (mICE [5]; Example 31) [M⁻¹ s⁻¹]	pKi (mICE [5]; [9])	k3/Ki (CPP32 [6]; Example 31) [M⁻¹ s⁻¹]	pKi (CPP32 [6]; [9])	k3/Ki (MCH-2 [7]; Example 31) [M⁻¹ s⁻¹]	pKi (MCH-2 [7]; [9])	k3/Ki (MCH-5 [8]; Example 31) [M⁻¹ s⁻¹]	pKi (MCH-5 [8]; [9])
O=C1CC(NC(=O)C2CCc3cccc4c3N2C(=O)C(NC(=O)OCc2ccccc2)CC4)C(O)O1 (mixture of isomers) [Example 28, (3R,S-cis)-6-Benzyloxycarbonylamino-5-oxo-2,3,4,5,6,7,8-hexahydro-1H-azepino[3,2,1-hi]quinoline-3-carbonyl)-amino]-4-oxo-butanoic acid]	7.59	6.36	4.49	5.95	5.69	120 to 123 °C (dec.)								
